The subject of data set [1] is Cryptococcus neoformans ATCC 90113. In words: Antifungal susceptibility testing (modified NCCLS), Cn. Format: cell-based. The conditions noted are these: NA not defined in Table 1. As to the method: (§1) Compounds were evaluated in vitro against a panel of microorganisms, including Candida albicans ATCC 90028 (Ca), C. krusei ATCC 6258 (Ck), Cryptococcus neoformans ATCC 90113 (Cn), Staphylococcus aureus ATCC 29213 (Sa), methicillin-resistant S. aureus ATCC 43300 (MRSA), Pseudomonas aeruginosa ATCC 27853 (Pa), Aspergilllus fumigatus ATCC 90906 (Aj), and Mycobacterium intracellulare ATCC 23068 (Mi) as previously reported [Guoyi, M.; Khan, S.; Jacob, M. R; Tekwani, B. L.; Li, Z.; Pasco, D. S.; Walker, L. A.; Khan, 1. A.; Antimicrob Agents Chemother, 2004, 48, 4450-4452]. All organisms were obtained from the American Type Culture Collection (Manassas, Va.). Susceptibility testing was performed using a modified version of the NCCLS methods [a) National Committee for Clinical Laboratory Standards. 2000. Methods for dilution antimicrobial susceptibility tests for bacteria that grow aerobically. M7-A5. National Committee for Clinical Laboratory Standards, Wayne, Pa. b) National Committee for Clinical Laboratory Standards, 1997, Reference method for broth dilution antifungal susceptibility testing of yeasts. Approved standard M27-A. National Committee for Clinical Laboratory Standards, Wayne, Pa. c) National Committee for Clinical Laboratory Standards. 2000. Susceptibility testing of mycobacteria, nocardia, and other aerobic actinomycetes, 2nd ed. Tentative standard M24- T2. National Committee for Clinical Laboratory Standards, Wayne, Pa.] for all organisms except for M intracellulare, for which the modified Alamar blue procedure described by Franzblau et al [1998. J Clin Microbiol, 36, 362-366] was followed. Briefly, samples (dissolved in DMSO) were serially diluted by using 0.9% saline and transferred in duplicate to 96-well microplates. Microbial inocula were prepared after comparison of the absorbance (at 630 nm) of cell suspensions to the 0.5 McFarland standard and dilution of the suspensions in broth (Sabouraud dextrose and cation-adjusted Mueller-Hinton broth [Difco] for the fungi and bacteria, respectively, and 5% Alamar blue [BioSource international] in Middlebrook 7H9 broth with oleic acid-albumin-dextrose-catalase enrichment for M intracellulare) to afford recommended inoculum sizes. Microbial inocula were added to the samples to achieve a final volume of 200 μl and final sample concentrations starting with 100 μg/ml. Growth, solvent, and medium controls were included on each test plate. The plates were read at either 630 nm or excitation and emission wavelengths of 544 and 590 nm (for Mi) prior to and after incubation. Percent growth was calculated and plotted with the concentration tested to afford the concentration that inhibits 50% of growth (IC50). Antimalarial and cytotoxicity testing were conducted in a similar manner as previously reported [a) Muhammad, 1.; Bedir, E.; Khan, S. I.; Tekwani, B. L.; Khan, I. A.; Takamatsu, S.; Pelletier, 1.; Walker, L. A. J Nat Prod. 2004, 67, 772-7. b) Muhammad, 1.; Dunbar, D. C.; Khan, S. 1.; Tekwani, B. L.; Bedir, E.; Takamatsu, S.; Ferreira, D, Walker L A., J Nat Prod. 2003, 66, 962-7].

For data set [2], the system named is Candida albicans ATCC 90028. In words: Antifungal susceptibility testing (modified NCCLS), Ca. The conditions noted are these: NA not defined in Table 1. Format: cell-based. As for the experimental part:
as §1

The subject of data set [3] is Aspergillus fumigatus ATCC 90906. In words: Antimicrobial susceptibility testing, Af. In kind it is cell-based. As to the method:
as §1, with “Antimalarial and cytotoxicity testing were conducted in a similar manner as previously reported [a) Muhammad, 1.; Bedir, E.; Khan, S. I.; Tekwani, B. L.; Khan, I. A.; Takamatsu, S.; Pelletier, 1.; Walker, L. A. J Nat Prod. 2004, 67, 772-7. b) Muhammad, 1.; Dunbar, D. C.; Khan, S. 1.; Tekwani, B. L.; Bedir, E.; Takamatsu, S.; Ferreira, D, Walker L A., J Nat Prod. 2003, 66, 962-7].” left out

The test system of data set [4] is C. krusei ATCC 6258. The data set is described as follows: Antimicrobial susceptibility testing, Ck. Format: cell-based, Candida krusei. The conditions noted are these: Candida krusei. As for the experimental part: as §1, with “National Committee for Clinical Laboratory Standards, Wayne, Pa.] for all organisms except for M intracellulare, for which the modified Alamar blue procedure described by Franzblau et al [1998. J Clin Microbiol, 36, 362-366] was followed. Briefly, samples (dissolved in DMSO) were serially diluted by using 0.9% saline and transferred in duplicate to 96-well microplates.” left out, “Microbial inocula were added to the samples to achieve a final volume of 200 μl and final sample concentrations starting with 100 μg/ml. Growth, solvent, and medium controls were included on each test plate.” left out, “Percent growth was calculated and plotted with the concentration tested to afford the concentration that inhibits 50% of growth (IC50). Antimalarial and cytotoxicity testing were conducted in a similar manner as previously reported [a) Muhammad, 1.; Bedir, E.; Khan, S. I.; Tekwani, B. L.; Khan, I. A.; Takamatsu, S.; Pelletier, 1.; Walker, L. A. J Nat Prod. 2004, 67, 772-7. b) Muhammad, 1.; Dunbar, D. C.; Khan, S. 1.; Tekwani, B. L.; Bedir, E.; Takamatsu, S.; Ferreira, D, Walker L A., J Nat Prod. 2003, 66, 962-7].” left out

Data set [5] concerns Vero cells. In words: Cytotoxicity to mammalian cells (Vero). Format: cell-based. As for the experimental part:
(§2) All organisms were obtained from the American Type Culture Collection (Manassas, Va.). Susceptibility testing was performed using a modified version of the NCCLS methods [a) National Committee for Clinical Laboratory Standards. 2000. Methods for dilution antimicrobial susceptibility tests for bacteria that grow aerobically. M7-A5. […] Approved standard M27-A. National Committee for Clinical Laboratory Standards, Wayne, Pa. c) National Committee for Clinical Laboratory Standards. 2000. Susceptibility testing of mycobacteria, nocardia, and other aerobic actinomycetes, 2nd ed. Tentative standard M24- T2. […] Briefly, samples (dissolved in DMSO) were serially diluted by using 0.9% saline and transferred in duplicate to 96-well microplates. Microbial inocula were prepared after comparison of the absorbance (at 630 nm) of cell suspensions to the 0.5 McFarland standard and dilution of the suspensions in broth (Sabouraud dextrose and cation-adjusted Mueller-Hinton broth [Difco] for the fungi and bacteria, respectively, and 5% Alamar blue [BioSource international] in Middlebrook 7H9 broth with oleic acid-albumin-dextrose-catalase enrichment for M intracellulare) to afford recommended inoculum sizes. Microbial inocula were added to the samples to achieve a final volume of 200 μl and final sample concentrations starting with 100 μg/ml. Growth, solvent, and medium controls were included on each test plate. […] Antimalarial and cytotoxicity testing were conducted in a similar manner as previously reported [a) Muhammad, 1.; Bedir, E.; Khan, S. I.; Tekwani, B. L.; Khan, I. A.; Takamatsu, S.; Pelletier, 1.; Walker, L. A. J Nat Prod.

For data set [6], the system named is Plasmodium falciparum D6 Clone. The data set is described as follows: Antimalarial testing, D6 clone. Format: cell-based. The note with it: Plasmodium falciparum. As for the experimental part:
as §2

The subject of data set [7] is Plasmodium falciparum W2 Clone. In words: Antimalarial testing, W2 clone. In kind it is cell-based. The note with it: Plasmodium falciparum. As to the method: as §1
Data set [8] concerns methicillin-resistant S. aureus ATCC 43300. The data set is described as follows: Antimicrobial susceptibility testing, MRSA. Format: cell-based, Staphylococcus aureus. The note with it: Methicillin-Resistant Staphylococcus aureus; read-out: IC50 MRSA. As for the experimental part:
as §1, with “Antimalarial and cytotoxicity testing were conducted in a similar manner as previously reported [a) Muhammad, 1.; Bedir, E.; Khan, S. I.; Tekwani, B. L.; Khan, I. A.; Takamatsu, S.; Pelletier, 1.; Walker, L. A. J Nat Prod. 2004, 67, 772-7. b) Muhammad, 1.; Dunbar, D. C.; Khan, S. 1.; Tekwani, B. L.; Bedir, E.; Takamatsu, S.; Ferreira, D, Walker L A., J Nat Prod. 2003, 66, 962-7].” left out

In data set [9] the test system is Mycobacterium intracellulare ATCC 23068. In words: Modified Alamar blue procedure, Mi. Format: cell-based. The note with it: ATCC23068, read-out: IC50 Mi. As for the experimental part: as §1, with “Antimalarial and cytotoxicity testing were conducted in a similar manner as previously reported [a) Muhammad, 1.; Bedir, E.; Khan, S. I.; Tekwani, B. L.; Khan, I. A.; Takamatsu, S.; Pelletier, 1.; Walker, L. A. J Nat Prod. 2004, 67, 772-7. b) Muhammad, 1.; Dunbar, D. C.; Khan, S. 1.; Tekwani, B. L.; Bedir, E.; Takamatsu, S.; Ferreira, D, Walker L A., J Nat Prod. 2003, 66, 962-7].” left out
(Resazurin is reduced to fluorescent resorufin, in cell work by metabolically active cells.)

The subject of data set [10] is Pseudomonas aeruginosa ATCC 27853. In words: Antimicrobial susceptibility testing, Pa. In kind it is cell-based. The conditions noted are these: ATCC27853, NA = Not active up to 20 μg/ml. As for the experimental part: (§3) Compounds were evaluated in vitro against a panel of microorganisms, including Candida albicans ATCC 90028 (Ca), C. krusei ATCC 6258 (Ck), Cryptococcus neoformans ATCC 90113 (Cn), Staphylococcus aureus ATCC 29213 (Sa), methicillin-resistant S. aureus ATCC 43300 (MRSA), Pseudomonas aeruginosa ATCC 27853 (Pa), Aspergilllus fumigatus ATCC 90906 (Aj), and Mycobacterium intracellulare ATCC 23068 (Mi) as previously reported [Guoyi, M.; Khan, S.; Jacob, M. R; Tekwani, B. L.; Li, Z.; Pasco, D. S.; Walker, L. A.; Khan, 1. A.; Antimicrob Agents Chemother, 2004, 48, 4450-4452]. All organisms were obtained from the American Type Culture Collection (Manassas, Va.). Susceptibility testing was performed using a modified version of the NCCLS methods [a) National Committee for Clinical Laboratory Standards. 2000. […] Microbial inocula were prepared after comparison of the absorbance (at 630 nm) of cell suspensions to the 0.5 McFarland standard and dilution of the suspensions in broth (Sabouraud dextrose and cation-adjusted Mueller-Hinton broth [Difco] for the fungi and bacteria, respectively, and 5% Alamar blue [BioSource international] in Middlebrook 7H9 broth with oleic acid-albumin-dextrose-catalase enrichment for M intracellulare) to afford recommended inoculum sizes. […] The plates were read at either 630 nm or excitation and emission wavelengths of 544 and 590 nm (for Mi) prior to and after incubation. […]

For data set [11], the system named is Staphylococcus aureus ATCC 29213. In words: Antimicrobial susceptibility testing, Sa. The note with it: ATCC29213. Format: cell-based. As to the method:
as §3

In brackets after ≈: the same amount, converted by molar mass. Read-outs that look alike come from different tables or passages of the source. A value given as a limit tells only on which side of the number the result lay.

`c1ccc2c(c1)cc1[nH]c3ccccc3c1[n+]2CCCCC[n+]1c2ccccc2cc2[nH]c3ccccc3c21` (hydrate or solvate) [Compound 10] came in with a melting point of 256 to 258 °C.

In the case of `C[n+]1c2ccccc2cc2c1c1ccccc1n2CCCCCn1c2ccccc2c2c1cc1ccccc1[n+]2C` (hydrate or solvate) [Compound 12], the melting point lay within 238 to 240 °C.

For the compound `C[C@@H]1[C@H](O)[C@@H](C)/C=C/C=C/C=C/C=C/C=C/C=C/C=C/[C@H](O[C@@H]2O[C@H](C)[C@@H](O)[C@H](N)[C@@H]2O)C[C@@H]2O[C@](O)(C[C@@H](O)C[C@@H](O)[C@H](O)CC[C@@H](O)C[C@@H](O)CC(=O)O[C@H]1C)C[C@H](O)[C@H]2C(=O)O` [Amphotericin B, reference compound], the “IC50 Cn” value in data set [1] stood at 0.6 µg/mL (≈ 0.649 µM). For the same compound, the “IC50 Ca” value in data set [2] was found to be 0.1 µg/mL (≈ 0.108 µM). Besides, in data set [3], the “IC50 Af” value was 0.31 µg/mL (≈ 0.335 µM). Also, in data set [4], the “IC50 Ck” value was found to be 0.60 µg/mL (≈ 0.649 µM). For the same compound, the “Cytotoxicity (Vero) TC50” value in data set [5] is 6.5 µg/mL.

On to `C[C@@H]1CC[C@H]2[C@@H](C)C(=O)O[C@@H]3O[C@@]4(C)CC[C@@H]1[C@]32OO4` [Artemisinin, reference compound], for which the IC50 in data set [6] (D6 Clone, read-out: Plasmodium falciparum IC50 Pf (D6)) was found to be 0.0085 µg/mL (≈ 0.0301 µM); in [7] (W2 Clone, NA = Not active up to 20 μg/ml, read-out: Plasmodium falciparum IC50 Pf (W2)), 0.0031 µg/mL (≈ 0.011 µM). Also, the “Cytotoxicity (Vero) TC50” value in data set [5] (African green monkey) was more than 23.8 µg/mL.

As to `CCN(CC)CCCC(C)Nc1ccnc2cc(Cl)ccc12` (centres unmarked) [Chloroquine, reference compound], the IC50 in data set [6] (D6, read-out: Plasmodium falciparum IC50 Pf (D6)) was determined as 0.017 µg/mL (≈ 0.0531 µM); in [7] (W2, read-out: Plasmodium falciparum IC50 Pf (W2)), 0.075 µg/mL (≈ 0.234 µM). The “Cytotoxicity (Vero) TC50” value in data set [5] (Vero cells, NC = No Cytotoxicity observed up to 5 μg/ml) is more than 23.8 µg/mL.

As to `O=C(O)c1cn(C2CC2)c2cc(N3CCNCC3)c(F)cc2c1=O` [Ciprofloxacin, reference compound], the IC50 in data set [8] was determined as 0.15 µg/mL (≈ 0.453 µM); in data set [9], 0.2 µg/mL (≈ 0.604 µM); in data set [10], 0.06 µg/mL (≈ 0.181 µM); in data set [11], 0.1 µg/mL (≈ 0.302 µM).

Broadly, the melting point is the temperature, or range, at which the solid turns liquid. As a reminder, the IC50 is the midpoint of a concentration-inhibition curve.
